Assay results published in ChEMBL document CHEMBL2016505, “Footprint-based identification of viral entry inhibitors targeting HIVgp41” (Bioorg Med Chem Lett, 2012).

Columns and labels:
[1] = Binding affinity to gp41 in HIV1 by fluorescence analysis; set-up: species or system Human immunodeficiency virus 1
[2] = Inhibition of HIV1 3B gp41-mediated cell-cell fusion between viral envelope expressing virus-infected HL2/3 cells to human MAGI-CCR5 cells after 6 hrs by luciferase reporter gene assay; type: cell-based; details: Human immunodeficiency virus 1, MAGI-CCR5, 6 h
[3] = Cytotoxicity against human MAGI-CCR5 cells assessed as cell viability by MTS assay; type: cell-based

Structure (SMILES) | Ki [1] [nM] | IC50 [2] [µM] | CC50 [3] [µM]
Cc1ccc(OCCn2cc(/C=C/C(=O)O)c3ccccc32)cc1 | 13000 | 43 | > 50
COc1ccc(C(=O)Oc2ccc(Br)cc2/C=N/N=C2\NC(=O)[C@H](CC(=O)O)S2)cc1 | 1600 | 41.1 | 208
CCc1nc2nc(CSc3nnc(NC(=O)COc4ccc(C)c(C)c4)s3)cc(O)n2n1 | 2550 | 53.5 | > 50

Continued, in another order:

Ki [1] [nM] | IC50 [2] [µM] | Structure (SMILES) | CC50 [3] [µM]
4450 | 160 | Cc1cccc(NC(=O)CN2C(=O)N/C(=C/c3cccn3-c3cccc(C(=O)O)c3)C2=O)c1 | > 100
7100 | 34 | O=C(CN1C(=O)N/C(=C/c2ccccc2OCc2ccc(C(=O)O)cc2)C1=O)Nc1ccccc1 | > 50
200 | 4.64 | O=C(O)c1cccc(N/N=C2\C(=O)N(c3nc(-c4ccccc4)cs3)N=C2c2ccccc2)c1 | 53
460 | 13.3 | Cc1ccc(-c2nc(SCC(=O)Nc3ccc(C)c(C)c3)n3[nH]c(=O)cc3n2)cc1 | > 50
